In PMC6934184, “Selective DNA-PKcs inhibition extends the therapeutic index of localized radiotherapy and chemotherapy” (The Journal of Clinical Investigation, 2019):

Target: T1, ROCK1 (Homo sapiens, UniProt Q13464)
T1 construct: purchased Thermo Fisher Scientific (Life Technologies) SelectScreen
Assay: SelectScreen Z'LYTE
Format: biochemical
Method in brief: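 SelectScreen broad panel; activity (Z'LYTE, Adapta) plus binding formats. ATP: Km app for CSF1R Z'LYTE; 10 for CAMK1 Adapta. Readout = % per kinase.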

T1 sequence (Q13464 whole entry): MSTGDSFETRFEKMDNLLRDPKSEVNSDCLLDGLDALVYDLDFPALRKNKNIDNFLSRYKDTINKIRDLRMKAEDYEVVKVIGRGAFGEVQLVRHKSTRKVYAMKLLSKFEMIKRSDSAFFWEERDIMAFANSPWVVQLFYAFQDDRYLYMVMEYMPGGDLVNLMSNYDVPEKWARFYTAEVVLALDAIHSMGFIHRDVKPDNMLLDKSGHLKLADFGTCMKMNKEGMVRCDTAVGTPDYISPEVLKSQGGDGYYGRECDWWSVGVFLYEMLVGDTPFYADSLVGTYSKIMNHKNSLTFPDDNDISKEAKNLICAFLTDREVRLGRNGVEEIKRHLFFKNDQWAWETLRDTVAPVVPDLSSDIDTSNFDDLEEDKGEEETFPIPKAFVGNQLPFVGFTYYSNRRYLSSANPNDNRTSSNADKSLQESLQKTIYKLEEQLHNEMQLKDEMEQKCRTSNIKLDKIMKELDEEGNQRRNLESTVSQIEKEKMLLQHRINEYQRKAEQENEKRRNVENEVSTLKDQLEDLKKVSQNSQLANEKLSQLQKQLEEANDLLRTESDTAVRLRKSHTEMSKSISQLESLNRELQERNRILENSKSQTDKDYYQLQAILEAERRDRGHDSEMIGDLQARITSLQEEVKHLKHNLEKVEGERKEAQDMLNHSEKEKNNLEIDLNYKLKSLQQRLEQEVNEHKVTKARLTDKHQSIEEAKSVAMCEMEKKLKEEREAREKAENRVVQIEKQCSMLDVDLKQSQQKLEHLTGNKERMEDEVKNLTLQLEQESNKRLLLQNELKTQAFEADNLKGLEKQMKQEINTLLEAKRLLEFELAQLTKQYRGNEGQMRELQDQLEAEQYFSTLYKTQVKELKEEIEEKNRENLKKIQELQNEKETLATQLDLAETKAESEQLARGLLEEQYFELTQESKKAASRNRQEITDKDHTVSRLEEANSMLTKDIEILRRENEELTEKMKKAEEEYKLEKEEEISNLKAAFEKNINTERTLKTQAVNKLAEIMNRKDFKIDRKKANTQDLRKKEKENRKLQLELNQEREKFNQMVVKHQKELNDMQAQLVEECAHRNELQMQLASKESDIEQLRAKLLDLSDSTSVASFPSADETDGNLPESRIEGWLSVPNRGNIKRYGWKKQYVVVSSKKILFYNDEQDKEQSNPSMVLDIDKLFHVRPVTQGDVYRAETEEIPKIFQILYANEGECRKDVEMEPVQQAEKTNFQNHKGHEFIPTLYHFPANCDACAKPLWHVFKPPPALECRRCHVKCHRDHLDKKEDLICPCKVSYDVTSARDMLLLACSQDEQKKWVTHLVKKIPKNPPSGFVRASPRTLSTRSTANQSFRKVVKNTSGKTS

CN(C(=O)CN1CCOCC1)c1ccc2sc3c(-c4cccc5c(=O)cc(N6CC7CCC(C6)O7)oc45)cccc3c2c1 [NU5455] showed an inhibition at 1 µM of -9.5%.
